The values below come from PMC9147192, “Small Molecule Arranged Thermal Proximity Coaggregation (smarTPCA)—A Novel Approach to Characterize Protein–Protein Interactions in Living Cells by Similar Isothermal Dose–Responses” (International Journal of Molecular Sciences, 2022).

A word on the Hill slope: it is a measure of the steepness of the concentration-response curve. A word on the EC50: it is the concentration at which the effect is half-maximal. Low readings indicate an effect from little substance, high ones a need for much substance.

This experiment deals with T1, PFAS (Homo sapiens, UniProt O15067).
T1 construct: endogenous in cells; host or cells: HL-60 (ATCC CCL-240)
T1 sequence (O15067 1-1338): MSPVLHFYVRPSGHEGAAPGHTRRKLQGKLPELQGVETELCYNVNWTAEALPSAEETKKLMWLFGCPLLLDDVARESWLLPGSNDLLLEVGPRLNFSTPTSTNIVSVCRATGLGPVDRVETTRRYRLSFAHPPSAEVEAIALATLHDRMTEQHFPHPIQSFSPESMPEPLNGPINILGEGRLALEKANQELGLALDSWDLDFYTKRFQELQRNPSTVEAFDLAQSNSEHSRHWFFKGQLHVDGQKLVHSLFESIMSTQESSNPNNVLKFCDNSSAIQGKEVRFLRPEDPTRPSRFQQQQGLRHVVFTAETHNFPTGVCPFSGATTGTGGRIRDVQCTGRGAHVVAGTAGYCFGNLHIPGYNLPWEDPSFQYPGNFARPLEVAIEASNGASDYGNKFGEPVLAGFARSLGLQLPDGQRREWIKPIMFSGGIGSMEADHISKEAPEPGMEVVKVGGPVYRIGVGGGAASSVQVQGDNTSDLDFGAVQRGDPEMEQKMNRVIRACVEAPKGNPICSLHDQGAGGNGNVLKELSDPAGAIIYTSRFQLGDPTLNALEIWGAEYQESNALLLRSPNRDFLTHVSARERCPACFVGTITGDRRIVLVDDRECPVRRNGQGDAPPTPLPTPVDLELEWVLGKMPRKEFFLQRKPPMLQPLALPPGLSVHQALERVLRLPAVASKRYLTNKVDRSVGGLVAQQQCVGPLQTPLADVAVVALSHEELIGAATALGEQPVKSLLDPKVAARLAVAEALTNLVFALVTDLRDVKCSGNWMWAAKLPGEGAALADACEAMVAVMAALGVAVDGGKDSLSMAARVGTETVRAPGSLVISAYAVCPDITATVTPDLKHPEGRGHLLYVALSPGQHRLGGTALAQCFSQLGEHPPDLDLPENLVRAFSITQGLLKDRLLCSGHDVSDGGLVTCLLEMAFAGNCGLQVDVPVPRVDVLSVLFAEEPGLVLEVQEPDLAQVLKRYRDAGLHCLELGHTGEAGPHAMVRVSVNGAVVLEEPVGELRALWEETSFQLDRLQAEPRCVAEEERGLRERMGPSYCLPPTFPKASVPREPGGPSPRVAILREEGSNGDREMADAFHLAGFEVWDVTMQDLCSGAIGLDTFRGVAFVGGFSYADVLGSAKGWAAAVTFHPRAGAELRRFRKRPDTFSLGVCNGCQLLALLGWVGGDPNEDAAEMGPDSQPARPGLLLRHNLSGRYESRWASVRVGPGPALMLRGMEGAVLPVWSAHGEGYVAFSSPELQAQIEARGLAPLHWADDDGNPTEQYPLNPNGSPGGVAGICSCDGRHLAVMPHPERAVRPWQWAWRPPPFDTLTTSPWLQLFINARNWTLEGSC
In words: TPP-CCR in living HL-60 cells. In kind it is cell-based. From the text:
Therefore, we performed TPP with compound concentration range (TPP-CCR) experiments according to published procedures. In brief, after preparing tryptic peptides from the non-denatured protein fractions (used for immunoblotting in the previous sections) applying the SP3 method, the peptides were labeled using TMT10plex, coding for inhibitor concentration, and the samples belonging to a TMT set were combined, offline high-pH fractionated, and analyzed by MS.
HL-60 cells were expanded as described above for CETSA and TPP-TR to 1.25 million cells per milliliter. […] A number of 2.5 million cells in 2 mL of medium were added to each tube and incubated (1 h, 37 °C). After centrifugation (300 rcf, 3 min, r.t.) and removing all of the supernating culture medium, the cells were washed once with 2 mL and once with 0.5 mL PBS (r.t.) by gently resuspending the cells, followed by centrifugation (300 rcf, 3 min, r.t.) and the complete removal of the supernatants.
After transferring the cells from the 2 mL Eppendorf tubes into correspondingly labeled PCR tubes (tube strips) using 100 µL of ice-cold PBS supplemented with protease inhibitors for resuspending the cells, the samples were further processed as described above for CETSA and TPP-TR, however, by applying a single treatment temperature of 51 °C.
For each sample set comprising ten compound concentration range samples, a same volume of the cell extracts containing the fraction of soluble, non-denatured proteins, corresponding to an average of 5 µg total protein, was used for further analysis. The calculated volume was respectively transferred into PCR tubes of a tube strip and supplemented with SDS sample buffer without DTT and bromophenol blue (final concentrations: 7.5% glycerol, 3% SDS, 37.5 mM Tris/HCl pH 7.0) and ddH2O to a final volume of 10 µL, respectively. Reduction and alkylation were performed by addition of 2.5 µL 100 mM dithiothreitol (DTT; incubation: 20 min, 56 °C, 1000 rpm in an Eppendorf ThermoMixer C, covering the tubes with aluminum foil to minimize condensation in the lids) and 3.33 µL 300 mM iodoacetamide (IAA; incubation: 15 min, r.t., in the dark without shaking), as well as 2.5 µL 100 mM DTT (incubation: 15 min, r.t., without shaking; quenching of excess of IAA). […] The beads were collected and washed (3× 200 µL 80% ethanol p.a. in HPLC-MS grade water, 1 × 200 µL acetonitrile (ACN; HPLC gradient grade)) using a device for handling of magnetic particles [patent US20100200405A1]. The ACN of the last washing step was completely removed by aspiration without letting the beads dry out.
Tryptic digest was performed on-bead by resuspending (use of an ultrasound bath may be required) the beads in 20 µL 50 mM TEAB in HPLC-MS grade water containing 0.1 µg Trypsin/Lys-C mix and 16.5 h incubation at 37 °C and 1000 rpm (Eppendorf ThermoMixer C, covering the tubes with aluminum foil to minimize condensation in the lids). Tryptic fragmentation of proteins was optimized by addition of another 0.1 µg of Trypsin/Lys-C mix in 2 µL 50 mM TEAB and 4 h incubation at 37 °C and 1000 rpm. After centrifugation for about 1 min in a table top centrifuge and magnetic concentration and retention of the beads at the inner tube wall, the supernatants containing the peptides were transferred into new PCR tubes (of tube strips) and were stored at −80 °C. The beads were discarded.
Half of the peptide samples (11 µL containing about 2.5 µg peptides) were transferred into new PCR tubes (of tube strips) and allowed to equilibrate to r.t. TMT labeling reagents were reconstituted as described for the TPP-TR samples, and 1 µL each was added to the reconstituted peptides according to the following scheme and homogenized immediately by aspiration and dispensing:
Peptide separation was performed as described above for the analysis of TPP-TR samples. […]

The mark [1] stands for this setting: living HL-60 cells, […] °C, TMT-MS.

In turn, `Cc1cnc(Nc2ccc(F)cc2Cl)nc1-c1c[nH]c(C(=O)N[C@H](CO)c2cccc(Cl)c2)c1` [ERK 11e] yielded a Hill slope (TPP-CCR, living cells, PFAS) of 0.30. For the same compound, under setting [1], the EC50 is 1170 nM and the “Hill slope (PFAS)” value came to 0.30.
